Where only a bound is given, the exact number is not on record here.

These results are taken from patent publication US10653739B2, “Medicinal ambrosia maritima extracts” (priority 2015, dated 2020).

In assay [1] the test system is UM-UC-9 bladder cancer cell line. As to the kind of experiment: MTS IC50, UM-UC-9 bladder cancer cell line. The assay is classed as cell-based. Particulars: 1000 cells/well. How it is done: (§1) MTS was used to evaluate IC50 (drug concentration causing 50% inhibition of the desired activity) for SLs on various bladder, prostate, breast, lung and pancreatic cancer cell lines.
(§2) The MTS test was then conducted to evaluate the different IC50 of multiple cell lines. Purification was performed to separate the organic extract of SLs into different components. Micromolar doses, instead of micrograms, as determined by the molecular weight of the different SLs, Parthenin, Ambrosin, Damsin, and Neoambrosin, were tested in vitro. Ideally, for drug treatments, micromolar weights between 10-15 are preferred.

The test system of assay [2] is MDA-MB-231 breast cancer cell line. As to the kind of experiment: MTS IC50, MDA-MB-231 breast cancer cell line. Format: cell-based. To be noted: for IC50: Homo sapiens, MDA-MB-231, individual SLs, MTS. Here is the method:
as §1
Several TNBC cell lines were tested in vitro and were treated with serial concentrations of the extracted SLs from Ambrosia maritima to determine IC50.
(§3) The IC50 of the purified SLs, Parthenin, Ambrosin, Damsin, and Neoambrosin, were also tested for MDA-MB-231 cell line (FIG. 22), MDA-MB-468 (Basal Subtype Normal) cell line (FIG. 23), and BT-474 cell line (FIG. 24), an invasive ductal carcinoma cell line (luminal subtype B).
(§4) Similar tests were performed with the organic extract from Ambrosia hispida.

The subject of assay [3] is UM-UC-15 bladder cancer cell line. As to the kind of experiment: MTS IC50, UM-UC-15 bladder cancer cell line. Format: cell-based. To be noted: 1000 cells/well. How it is done: as §1, §2
For assay [4], the system named is BT-474 breast cancer cell line. As to the kind of experiment: MTS IC50, BT-474 breast cancer cell line. Format: cell-based. Particulars: Homo sapiens, individual SLs. Here is the method:
as §1, §3

The test system of assay [5] is MDA-MB-468 breast cancer cell line. As to the kind of experiment: MTS IC50, MDA-MB-468 breast cancer cell line. Format: cell-based. Particulars: Homo sapiens, individual SLs. Here is the method: as §1, §3
Assay [6] relates to UM-UC-17 bladder cancer cell line. As to the kind of experiment: MTS IC50, UM-UC-17 bladder cancer cell line. The assay is classed as cell-based. To be noted: 1000 cells/well. Here is the method:
as §1, §2

The subject of assay [7] is UM-UC-7 bladder cancer cell line. As to the kind of experiment: MTS IC50, UM-UC-7 bladder cancer cell line. The assay is classed as cell-based. To be noted: 1000 cells/well. How it is done: as §1, §2
Assay [8] concerns prostate cancer cell line. As to the kind of experiment: MTS IC50, prostate cancer cell line. The assay is classed as cell-based. To be noted: purified sub fractions of the organic extraction.
Text: as §1
The concentration is in μmol. As expected, some of the sub fractions affected the cell line to a much greater extent to others.

Assay [9] concerns MDA-MB-231 breast cancer cells. Description: Orthotopic MDA-MB-231 breast cancer model. Format: in vivo, mice. To be noted: MDA-MB-231 triple negative cell line. Here is the method: Additional in vivo experiments were conducted for three breast cancer cell lines that were orthotopically injected into mice. Orthotopic injection of breast cancer cells is a powerful model to study all aspects of cancer growth. One million cells of each MDA-MB-231, SUM-159 and MDA-MB-468 were injected into the mammary fat pad of mice to form tumors. Once tumors were established, the tumors were treated with the SL-containing organic extraction of Ambrosia maritima at a dose of 200 μM of total SLs/animal daily.
FIGS. 11A-B show the histopathology of the tumor area in the mice treated with the SLs extracted from Ambrosia maritima versus control animals for the SUM-159 and MDA-MB-231 cell lines.
Thus, these components can be purified individually from the SL organic fraction and then combined as a potential treatment.

The test system of assay [10] is BT-20 breast cancer cell line. Description: MTS IC50, BT-20 breast cancer cell line. The assay is classed as cell-based. Particulars: Ambrosin purified from Ambrosia hispida. How it is done: as §1, §4
For assay [11], the system named is UM-UC-9 (bladder) and BT-20 (breast) cancer cell line. Description: Bromouridine sequencing of nascent transcription. The assay is classed as cell-based. To be noted: 3.5 hours treatment. Here is the method:
A common method of monitoring RNA changes is by labeling new RNA with Bromouridine, then isolate the RNA to see where the new RNA was made. Bromouridine sequencing is well known in the art.
We used this method to monitor RNA in the UM-UC-9 (bladder) and BT-20 (breast) cancer cell line to detect the level of nascent transcription on the genome after treatment with SLs. Both cell lines were treated with the whole organic fraction at one time, or purified Ambrosin from the organic fraction at different doses for 3.5 hours. The RNA was then labeled with Bromouridine for half an hour and sequenced to detect the level of nascent transcription in the genome.

In the case of `C=C1C(=O)O[C@@H]2[C@H]1CC[C@H](C)[C@]1(O)C=CC(=O)[C@@]21C` (single isomer, unassigned) [PARTHENIN, Parthenin], the IC50 turned out to be 14.2 µM in assay [1] (UM-UC-9, MTS); 4.74 µM in [2]; 4.9 µM in assay [3]; 8.57 µM in assay [4]; 1.23 µM in [5]; 6.32 µM in assay [6]. Besides, the figures for the IC50 in [7] and in [8] were 6.49 µM and 4.88 µM, respectively.

Turning to `C=C1C(=O)O[C@@H]2[C@H]1CC[C@H](C)[C@@H]1C=CC(=O)[C@@]21C` (single isomer, unassigned) [AMBROSIN, Ambrosin], the IC50 in [1] (MTS) is 6.25 µM; in assay [1] (UM-UC-9, MTS) it was under 10 µM; in assay [2], 1.02 µM; in assay [3] it was 0.991 µM; in assay [4], 2.17 µM; in [5] it was 0.882 µM. Also, the IC50 came out at 1.35 µM in [6], 4.89 µM in assay [7] and 2.71 µM in assay [8]. Besides, in assay [2] (Ambrosin purified from Ambrosia hispida), the “IC50 of purified Ambrosin compared with SL extract of Ambrosia hispida, MDA-MB-231” value was “greater IC50”. The “level of expression of HER2 and p65 in xenografted animals” value in assay [9] is “significant improves”. For the same compound, in [10], the “IC50 of purified Ambrosin compared with SL extract of Ambrosia hispida, BT-20” value is recorded as “greater IC50”. Moreover, in [11], the “nascent transcription of genes of apoptotic pathway, reactive oxygen species pathway” value is “upregulated”. The “nascent transcription of hallmark genes related to cancer progression and proliferation” value in assay [11] is “transcribing them at lower level than the control”.

Regarding `C=C1C(=O)O[C@@H]2[C@H]1CC[C@H](C)C1=CCC(=O)[C@]12C` (single isomer, unassigned) [NEOAMBROSIN, Neoambrosin], the IC50 in [1] (UM-UC-9, MTS) came to 142 µM; in assay [2], 22.5 µM; in [3] it was 146 µM; in [4], 36.1 µM; in assay [5], 9.08 µM; in assay [6], 31.8 µM. In addition, the concentration for half-maximal inhibition (IC50) is 120 µM in assay [7] and 264 µM in [8].

Take `C=C1C(=O)O[C@@H]2[C@H]1CC[C@H](C)[C@@H]1CCC(=O)[C@@]21C` (single isomer, unassigned) [DAMSIN, Damsin]: the IC50 in assay [1] (MTS) worked out at 4.73 µM; in assay [2], 1.6 µM; in [3], 1.06 µM; in assay [4], 2.8 µM; in assay [5] it was 0.935 µM; in assay [6], 2.86 µM. The IC50 worked out at 1.09 µM in assay [7] and 1.16 µM in assay [8]. The “level of expression of HER2 and p65 in xenografted animals” value in assay [9] is “significant improves”.

For orientation: IC50 means the midpoint of a concentration-inhibition curve.
